Experiments:
Assay in all cases: KINOMEscan
Type in all cases: binding
Settings in all cases: read-out: % control activity remaining
DAPK1 = molecular target: T1, DAPK1 (Homo sapiens, UniProt P53355)
T1 construct: purchased Eurofins DiscoverX KINOMEscan

IRAK4 = molecular target: T2, IRAK4 (Homo sapiens, UniProt Q9NWZ3)
T2 construct: purchased Eurofins DiscoverX KINOMEscan
T2 sequence (Q9NWZ3 1-460): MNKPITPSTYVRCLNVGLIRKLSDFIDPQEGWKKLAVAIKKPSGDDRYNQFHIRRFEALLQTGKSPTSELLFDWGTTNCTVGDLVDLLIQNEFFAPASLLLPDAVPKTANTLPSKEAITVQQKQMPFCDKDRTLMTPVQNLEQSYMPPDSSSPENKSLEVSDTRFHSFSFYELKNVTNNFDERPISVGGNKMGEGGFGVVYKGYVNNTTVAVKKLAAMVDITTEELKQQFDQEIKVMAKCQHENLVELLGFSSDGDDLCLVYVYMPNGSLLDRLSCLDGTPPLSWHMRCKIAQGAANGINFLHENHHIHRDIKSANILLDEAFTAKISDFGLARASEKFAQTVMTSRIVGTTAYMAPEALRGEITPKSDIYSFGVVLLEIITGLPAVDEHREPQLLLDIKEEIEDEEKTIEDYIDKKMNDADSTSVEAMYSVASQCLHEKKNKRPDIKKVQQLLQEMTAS

PRKCI = molecular target: T3, PRKCI (Homo sapiens, UniProt P41743)
T3 construct: purchased Eurofins DiscoverX KINOMEscan
T3 sequence (P41743 1-596): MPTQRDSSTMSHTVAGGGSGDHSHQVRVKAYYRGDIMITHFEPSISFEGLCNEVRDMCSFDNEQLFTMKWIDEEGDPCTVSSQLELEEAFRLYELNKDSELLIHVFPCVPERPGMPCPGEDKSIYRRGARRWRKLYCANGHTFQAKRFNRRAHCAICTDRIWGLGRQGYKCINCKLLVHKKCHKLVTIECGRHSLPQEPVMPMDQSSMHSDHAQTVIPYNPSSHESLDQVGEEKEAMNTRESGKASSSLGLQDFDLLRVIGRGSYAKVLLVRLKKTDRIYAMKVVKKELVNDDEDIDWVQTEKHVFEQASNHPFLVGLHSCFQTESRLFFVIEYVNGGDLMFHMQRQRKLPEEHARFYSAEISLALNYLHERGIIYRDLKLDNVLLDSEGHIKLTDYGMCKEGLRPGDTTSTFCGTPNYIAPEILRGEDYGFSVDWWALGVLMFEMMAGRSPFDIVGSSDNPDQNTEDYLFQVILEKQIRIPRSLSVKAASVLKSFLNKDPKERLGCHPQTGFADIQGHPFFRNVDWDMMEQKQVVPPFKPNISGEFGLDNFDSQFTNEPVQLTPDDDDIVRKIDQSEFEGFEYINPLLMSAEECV

LRRK2(G2019S) = molecular target: T4, LRRK2(G2019S) (Homo sapiens, UniProt Q5S007, G2019S)
T4 construct: purchased Eurofins DiscoverX KINOMEscan
T4 sequence (Q5S007 whole entry G2019S): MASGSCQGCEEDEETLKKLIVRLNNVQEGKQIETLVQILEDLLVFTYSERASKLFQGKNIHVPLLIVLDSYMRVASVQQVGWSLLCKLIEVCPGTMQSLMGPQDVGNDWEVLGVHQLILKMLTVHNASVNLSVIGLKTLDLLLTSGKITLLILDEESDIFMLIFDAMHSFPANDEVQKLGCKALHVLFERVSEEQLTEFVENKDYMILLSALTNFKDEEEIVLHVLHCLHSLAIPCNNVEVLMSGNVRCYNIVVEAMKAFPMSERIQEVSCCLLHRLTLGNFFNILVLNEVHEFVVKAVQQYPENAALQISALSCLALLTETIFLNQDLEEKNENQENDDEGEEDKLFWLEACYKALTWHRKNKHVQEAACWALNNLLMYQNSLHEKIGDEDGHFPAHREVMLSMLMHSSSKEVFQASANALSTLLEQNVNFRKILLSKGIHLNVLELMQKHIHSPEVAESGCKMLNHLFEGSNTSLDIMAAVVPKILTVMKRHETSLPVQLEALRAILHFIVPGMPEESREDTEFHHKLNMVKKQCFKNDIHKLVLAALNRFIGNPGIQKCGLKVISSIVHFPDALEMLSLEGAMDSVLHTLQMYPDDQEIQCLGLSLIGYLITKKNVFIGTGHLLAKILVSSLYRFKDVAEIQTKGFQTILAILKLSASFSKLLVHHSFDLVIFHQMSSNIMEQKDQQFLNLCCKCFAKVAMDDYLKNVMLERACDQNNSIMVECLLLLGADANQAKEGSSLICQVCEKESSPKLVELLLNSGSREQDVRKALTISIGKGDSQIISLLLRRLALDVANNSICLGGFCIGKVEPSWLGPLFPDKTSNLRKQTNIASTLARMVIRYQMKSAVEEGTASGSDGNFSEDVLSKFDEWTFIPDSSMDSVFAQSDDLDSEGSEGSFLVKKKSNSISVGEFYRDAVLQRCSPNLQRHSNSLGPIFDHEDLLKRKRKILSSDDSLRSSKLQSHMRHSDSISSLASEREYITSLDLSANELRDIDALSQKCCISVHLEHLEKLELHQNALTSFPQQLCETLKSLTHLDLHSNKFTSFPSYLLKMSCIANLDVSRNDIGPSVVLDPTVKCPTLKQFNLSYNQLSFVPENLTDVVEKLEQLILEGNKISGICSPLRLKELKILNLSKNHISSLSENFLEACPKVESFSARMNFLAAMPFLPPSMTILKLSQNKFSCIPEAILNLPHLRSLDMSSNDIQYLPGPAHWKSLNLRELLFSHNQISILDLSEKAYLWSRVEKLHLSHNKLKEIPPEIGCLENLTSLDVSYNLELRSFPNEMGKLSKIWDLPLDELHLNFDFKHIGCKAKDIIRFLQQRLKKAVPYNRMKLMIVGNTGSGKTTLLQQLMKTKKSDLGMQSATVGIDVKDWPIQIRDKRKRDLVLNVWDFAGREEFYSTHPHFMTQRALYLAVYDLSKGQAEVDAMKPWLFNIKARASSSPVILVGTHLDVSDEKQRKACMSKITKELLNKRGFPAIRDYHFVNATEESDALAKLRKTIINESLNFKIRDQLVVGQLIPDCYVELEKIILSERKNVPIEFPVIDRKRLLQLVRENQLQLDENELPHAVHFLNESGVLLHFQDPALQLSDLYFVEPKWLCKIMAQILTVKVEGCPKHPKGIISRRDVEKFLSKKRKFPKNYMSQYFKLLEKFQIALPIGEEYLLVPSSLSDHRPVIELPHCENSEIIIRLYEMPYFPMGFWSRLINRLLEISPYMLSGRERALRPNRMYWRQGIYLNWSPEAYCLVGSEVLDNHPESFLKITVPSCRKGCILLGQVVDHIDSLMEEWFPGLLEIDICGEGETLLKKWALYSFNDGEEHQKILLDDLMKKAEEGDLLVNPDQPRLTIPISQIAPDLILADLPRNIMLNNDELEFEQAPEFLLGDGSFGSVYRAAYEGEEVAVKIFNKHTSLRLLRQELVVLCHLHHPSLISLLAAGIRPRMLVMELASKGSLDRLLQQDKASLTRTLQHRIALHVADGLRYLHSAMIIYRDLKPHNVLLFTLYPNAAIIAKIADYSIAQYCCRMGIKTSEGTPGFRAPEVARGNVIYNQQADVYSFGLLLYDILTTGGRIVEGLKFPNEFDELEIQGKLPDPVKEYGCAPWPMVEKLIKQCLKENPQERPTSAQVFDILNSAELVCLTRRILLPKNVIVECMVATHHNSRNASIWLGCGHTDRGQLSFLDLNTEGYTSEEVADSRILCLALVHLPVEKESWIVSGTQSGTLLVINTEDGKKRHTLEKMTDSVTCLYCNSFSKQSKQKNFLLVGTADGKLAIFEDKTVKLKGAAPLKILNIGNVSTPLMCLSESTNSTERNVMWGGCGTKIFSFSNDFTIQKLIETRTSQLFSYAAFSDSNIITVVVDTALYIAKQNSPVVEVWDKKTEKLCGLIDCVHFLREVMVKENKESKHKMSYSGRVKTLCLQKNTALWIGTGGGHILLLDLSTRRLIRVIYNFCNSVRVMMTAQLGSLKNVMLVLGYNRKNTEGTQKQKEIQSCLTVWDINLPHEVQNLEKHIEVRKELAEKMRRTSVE

PIK3CA(E545K) = molecular target: T5, PIK3CA(E545K) (Homo sapiens, UniProt P42336, E545K)
T5 construct: purchased Eurofins DiscoverX KINOMEscan

HIPK2 = molecular target: T6, HIPK2 (Homo sapiens, UniProt Q9H2X6)
T6 construct: purchased Eurofins DiscoverX KINOMEscan
T6 sequence (Q9H2X6 whole entry): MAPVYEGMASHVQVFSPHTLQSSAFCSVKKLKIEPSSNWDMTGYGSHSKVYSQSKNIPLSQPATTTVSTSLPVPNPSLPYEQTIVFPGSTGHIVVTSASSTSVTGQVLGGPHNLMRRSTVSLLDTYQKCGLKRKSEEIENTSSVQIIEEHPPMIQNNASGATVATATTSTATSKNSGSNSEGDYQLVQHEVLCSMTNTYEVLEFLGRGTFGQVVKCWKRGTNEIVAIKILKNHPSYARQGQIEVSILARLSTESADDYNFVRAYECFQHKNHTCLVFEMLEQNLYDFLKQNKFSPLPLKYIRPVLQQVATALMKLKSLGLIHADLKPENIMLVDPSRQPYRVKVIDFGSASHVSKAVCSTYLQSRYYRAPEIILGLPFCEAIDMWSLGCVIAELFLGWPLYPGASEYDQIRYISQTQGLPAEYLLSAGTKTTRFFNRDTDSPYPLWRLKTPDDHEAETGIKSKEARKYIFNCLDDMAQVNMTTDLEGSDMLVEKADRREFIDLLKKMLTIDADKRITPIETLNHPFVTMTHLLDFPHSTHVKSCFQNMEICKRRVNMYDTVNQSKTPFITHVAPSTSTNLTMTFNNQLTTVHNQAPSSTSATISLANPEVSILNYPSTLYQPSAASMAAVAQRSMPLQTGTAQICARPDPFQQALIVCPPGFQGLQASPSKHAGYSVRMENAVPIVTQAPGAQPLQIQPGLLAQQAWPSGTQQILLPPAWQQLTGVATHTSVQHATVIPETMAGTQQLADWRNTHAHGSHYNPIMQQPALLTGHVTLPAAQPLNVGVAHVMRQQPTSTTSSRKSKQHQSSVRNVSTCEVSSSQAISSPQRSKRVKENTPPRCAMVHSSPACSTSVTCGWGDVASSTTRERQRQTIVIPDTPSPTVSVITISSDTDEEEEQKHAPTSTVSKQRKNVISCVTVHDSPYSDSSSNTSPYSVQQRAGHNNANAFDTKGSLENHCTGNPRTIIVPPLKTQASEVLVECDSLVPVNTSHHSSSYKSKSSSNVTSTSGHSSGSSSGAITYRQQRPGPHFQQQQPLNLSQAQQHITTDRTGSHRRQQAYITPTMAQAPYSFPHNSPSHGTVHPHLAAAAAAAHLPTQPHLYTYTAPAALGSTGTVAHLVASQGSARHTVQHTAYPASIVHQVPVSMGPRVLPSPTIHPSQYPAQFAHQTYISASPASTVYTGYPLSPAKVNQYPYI

MAST1 = molecular target: T7, MAST1 (Homo sapiens, UniProt Q9Y2H9)
T7 construct: purchased Eurofins DiscoverX KINOMEscan

CSF1R-autoinhibited = molecular target: T8, CSF1R-autoinhibited (Homo sapiens, UniProt P07333)
T8 construct: purchased Eurofins DiscoverX KINOMEscan
T8 sequence (P07333 539-972 limits assumed): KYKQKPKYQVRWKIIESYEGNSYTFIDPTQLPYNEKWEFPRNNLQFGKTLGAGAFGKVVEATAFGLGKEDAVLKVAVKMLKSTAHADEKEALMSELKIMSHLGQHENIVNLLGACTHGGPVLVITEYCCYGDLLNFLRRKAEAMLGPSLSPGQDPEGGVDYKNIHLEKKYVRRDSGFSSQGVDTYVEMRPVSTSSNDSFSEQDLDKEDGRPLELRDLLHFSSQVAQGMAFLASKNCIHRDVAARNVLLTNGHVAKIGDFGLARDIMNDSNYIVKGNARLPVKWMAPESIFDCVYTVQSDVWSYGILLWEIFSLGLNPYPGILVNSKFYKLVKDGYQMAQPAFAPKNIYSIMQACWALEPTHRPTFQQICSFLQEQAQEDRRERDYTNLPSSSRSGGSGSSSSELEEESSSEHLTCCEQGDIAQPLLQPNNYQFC

NIM1 = molecular target: T9, NIM1 (Homo sapiens, UniProt Q8IY84)
T9 construct: purchased Eurofins DiscoverX KINOMEscan
T9 sequence (Q8IY84 whole entry): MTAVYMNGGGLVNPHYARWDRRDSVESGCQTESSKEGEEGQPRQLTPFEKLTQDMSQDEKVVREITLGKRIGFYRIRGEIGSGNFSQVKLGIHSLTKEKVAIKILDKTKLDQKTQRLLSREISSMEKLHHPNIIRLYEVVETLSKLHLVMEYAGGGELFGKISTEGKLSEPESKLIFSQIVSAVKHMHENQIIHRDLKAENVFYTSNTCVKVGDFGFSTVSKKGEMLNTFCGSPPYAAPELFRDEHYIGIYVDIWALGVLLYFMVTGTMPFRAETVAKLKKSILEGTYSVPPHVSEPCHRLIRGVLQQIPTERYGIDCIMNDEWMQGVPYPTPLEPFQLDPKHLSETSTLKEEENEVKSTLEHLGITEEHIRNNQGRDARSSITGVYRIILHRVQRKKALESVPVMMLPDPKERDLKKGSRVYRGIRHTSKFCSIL

IKK-epsilon = molecular target: T10, IKK-epsilon (Homo sapiens, UniProt Q14164)
T10 construct: purchased Eurofins DiscoverX KINOMEscan
T10 sequence (Q14164 1-716): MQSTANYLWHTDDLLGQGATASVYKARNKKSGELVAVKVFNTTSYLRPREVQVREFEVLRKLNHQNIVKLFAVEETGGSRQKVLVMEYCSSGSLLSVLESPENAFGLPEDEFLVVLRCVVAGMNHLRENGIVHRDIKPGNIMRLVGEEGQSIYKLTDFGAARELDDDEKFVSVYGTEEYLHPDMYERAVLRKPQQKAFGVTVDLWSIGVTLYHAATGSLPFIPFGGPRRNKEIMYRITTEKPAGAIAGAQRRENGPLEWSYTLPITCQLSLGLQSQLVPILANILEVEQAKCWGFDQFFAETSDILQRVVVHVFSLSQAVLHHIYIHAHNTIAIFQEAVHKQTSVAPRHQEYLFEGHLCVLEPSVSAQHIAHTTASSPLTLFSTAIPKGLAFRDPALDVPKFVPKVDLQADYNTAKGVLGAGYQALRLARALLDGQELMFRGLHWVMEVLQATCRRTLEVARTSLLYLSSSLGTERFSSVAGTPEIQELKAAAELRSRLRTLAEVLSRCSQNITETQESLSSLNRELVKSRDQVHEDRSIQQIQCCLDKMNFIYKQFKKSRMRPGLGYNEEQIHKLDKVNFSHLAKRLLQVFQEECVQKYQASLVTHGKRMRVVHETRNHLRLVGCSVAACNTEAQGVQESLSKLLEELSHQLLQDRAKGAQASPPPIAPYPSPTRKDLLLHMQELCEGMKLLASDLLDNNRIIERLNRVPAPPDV

SMILES | remaining binding at 1 µM (DAPK1) | remaining binding at 1 µM (IRAK4) | remaining binding at 1 µM (PRKCI) | remaining binding at 1 µM (LRRK2(G2019S)) | remaining binding at 1 µM (PIK3CA(E545K)) | remaining binding at 1 µM (HIPK2) | remaining binding at 1 µM (MAST1) | remaining binding at 1 µM (CSF1R-autoinhibited) | remaining binding at 1 µM (NIM1) | remaining binding at 1 µM (IKK-epsilon)
CN1CCC(CNc2cc(Cl)nn3c(-c4cc5nc(Nc6ccccc6)[nH]c5cc4F)cnc23)CC1 [compound 31, 6-Chloro-3-(6-fluoro-2-(phenylamino)-1H-benzo[d]imidazol-5-yl)-N-((1-methylpiperidin-4-yl)methyl)imidazo[1,2-b]pyridazin-8-amine] | 99% | 91% | 89% | 88% | 68% | 85% | 63% | 100% | 77% | 78%
O=C(CN1CCOCC1)N[C@H]1CC[C@H](Nc2cc(Cl)nn3c(-c4ccc5[nH]ncc5c4)cnc23)CC1 [compound 26] | 66% | 85% | 100% | 76% | 80% | 0.7% | 73% | 91% | 91% | 100%
Clc1cc(NCC2CC2)c2ncc(-c3ccc4[nH]ncc4c3)n2n1 [compound 2, 6-Chloro-N-(cyclopropylmethyl)-3-(1H-indazol-5-yl)imidazo[1,2-b]pyridazin-8-amine] | 98% | 92% | 88% | 91% | 75% | 62% | 91% | 98% | 97% | 94%

Reference: PMC6437697 (Journal of Medicinal Chemistry, 2019)
